Assay results from ChEMBL document CHEMBL4483862, “Open-source discovery of chemical leads for next-generation chemoprotective antimalarials” (2018).

Test system: Plasmodium berghei
Assay: Luciferase/luciferin-expressing antifolate-resistant parasites were used to infect a culture of HepG2 cells that were pre-incubated with compounds. Infected hepatocytes emit light due to the luciferase reaction. Assay results are presented as the percent inhibition of light emission compared to control. […]
Assay type: functional
Settings: sporozoite; for IC90: read-out: LUCIFERASE INFECTION ASSAY - IC90

CC(Oc1ccc(Cl)cc1)C(=O)Nc1sccc1C(N)=O (stereo not given)
IC50 (PBLUC_HILL_SLOPE 15.8, PBLUC_R_SQUARED 0.448, read-out: LUCIFERASE INFECTION ASSAY - IC50): 3.72 µM
IC90: 4.27 µM

COc1cc2c(cc1OC)CN(c1nc(CN3CCOCC3)nc3sc4c(c13)CCC(C)C4)CC2 (stereo not given)
IC50 (PBLUC_HILL_SLOPE 15.9, PBLUC_R_SQUARED 0.656, read-out: LUCIFERASE INFECTION ASSAY - IC50): 3.41 µM
IC90: 3.91 µM

COc1cc(NC(=O)Nc2nc(C(N)Cc3ccc(C(F)(F)F)cc3)cs2)cc(OC)c1OC (stereo not given)
IC50 (PBLUC_HILL_SLOPE 15.7, PBLUC_R_SQUARED 0.39, read-out: LUCIFERASE INFECTION ASSAY - IC50): 6.04 µM
IC90: > 6.65 µM

c1ccn2c(Sc3ncnc4sccc34)nnc2c1
IC50 (PBLUC_HILL_SLOPE 16.1, PBLUC_R_SQUARED 0.0872, read-out: LUCIFERASE INFECTION ASSAY - IC50): 8.13 µM
IC90: 9.31 µM

CCCn1c(NC(=O)c2ccc3ccccc3n2)nc2ccccc21
IC50 (PBLUC_HILL_SLOPE 15.7, PBLUC_R_SQUARED 0.527, read-out: LUCIFERASE INFECTION ASSAY - IC50): 3.1 µM
IC90: 3.56 µM

Cc1sc2nc(-c3cccnc3)nc(N3CCN(C(=O)C4COc5ccccc5O4)CC3)c2c1C (stereo not given)
IC50 (PBLUC_HILL_SLOPE 15.9, PBLUC_R_SQUARED 0.0253, read-out: LUCIFERASE INFECTION ASSAY - IC50): 9.35 µM
IC90: > 10 µM

OC(c1ccc(F)c(Cl)c1)c1nnc(Nc2cc(C(F)(F)F)ccc2F)s1 (stereo not given)
IC50 (PBLUC_HILL_SLOPE 15.9, PBLUC_R_SQUARED 0.206, read-out: LUCIFERASE INFECTION ASSAY - IC50): 9.29 µM
IC90: > 10 µM

OCc1ccc(-c2cnc3cnc(-c4cccc(Cl)c4)cn23)cc1
IC50 (PBLUC_HILL_SLOPE 16, PBLUC_R_SQUARED 0.272, read-out: LUCIFERASE INFECTION ASSAY - IC50): 9.56 µM
IC90: > 9.83 µM

CC(C(=O)NCc1ccco1)c1ccc2c(c1)[nH]c1ccc(Cl)cc12 (stereo not given)
IC50 (PBLUC_HILL_SLOPE 15.7, PBLUC_R_SQUARED 0.128, read-out: LUCIFERASE INFECTION ASSAY - IC50): > 9.35 µM
IC90: > 9.35 µM

CN(C)CCNC(=O)c1cccc(-c2cc(-c3ccc(-c4ccccc4)cc3F)cnc2N)c1
IC50 (PBLUC_HILL_SLOPE 15.7, PBLUC_R_SQUARED 0.255, read-out: LUCIFERASE INFECTION ASSAY - IC50): > 7.26 µM
IC90: > 7.26 µM

Cc1nc2c(C(N)=O)ncn2c(C)c1CCC(=O)Nc1ccc2oc3ccccc3c2c1
IC50 (PBLUC_HILL_SLOPE 15.8, PBLUC_R_SQUARED 0.091, read-out: LUCIFERASE INFECTION ASSAY - IC50): 9.25 µM
IC90: 9.76 µM

O=c1cc(CN2CCN(C(c3ccc(F)cc3)c3ccc(F)cc3)CC2)nc2ccc(Cl)cn12
IC50 (PBLUC_HILL_SLOPE 16, PBLUC_R_SQUARED 0.275, read-out: LUCIFERASE INFECTION ASSAY - IC50): 8.61 µM
IC90: 9.88 µM

O=C(CN1C(=O)CSc2ccc(C(F)(F)F)cc21)Nc1ccc(Cl)cc1
IC50 (PBLUC_HILL_SLOPE 15.8, PBLUC_R_SQUARED 0.354, read-out: LUCIFERASE INFECTION ASSAY - IC50): 2.64 µM
IC90: 3.03 µM

COc1ccc(COC(=O)c2sc3nc4n(c(=O)c3c2C)CCC4)cc1F
IC50 (PBLUC_HILL_SLOPE 15.9, PBLUC_R_SQUARED 0.0512, read-out: LUCIFERASE INFECTION ASSAY - IC50): 9.36 µM
IC90: > 10 µM

Cc1ccc(Cn2nc(C)c(C(=O)Nc3nc4c(s3)CCCC4)c2Cl)cc1
IC50 (PBLUC_HILL_SLOPE 15.7, PBLUC_R_SQUARED 0.159, read-out: LUCIFERASE INFECTION ASSAY - IC50): 9.13 µM
IC90: > 10 µM

O=C(NNc1cccc(Cl)c1)c1c[nH]c(=S)n1-c1ccccc1
IC50 (PBLUC_HILL_SLOPE 16, PBLUC_R_SQUARED 0.438, read-out: LUCIFERASE INFECTION ASSAY - IC50): 9.92 µM
IC90: > 10 µM

COc1cc(-c2cnc3cnc(-c4cccnc4)cn23)ccc1O
IC50 (PBLUC_HILL_SLOPE 15.7, PBLUC_R_SQUARED 0.533, read-out: LUCIFERASE INFECTION ASSAY - IC50): 3.47 µM
IC90: 3.99 µM

CCOc1cc(/C=C2\CSc3c(F)cccc3C2=O)cc(Cl)c1O
IC50 (PBLUC_HILL_SLOPE 15.8, PBLUC_R_SQUARED 0.377, read-out: LUCIFERASE INFECTION ASSAY - IC50): 9.68 µM
IC90: > 10 µM

Cc1c(-c2ccccc2)oc2c(C(=O)Nc3ccc(N4CCOCC4)c4ccncc34)cccc2c1=O
IC50 (PBLUC_HILL_SLOPE 15.7, PBLUC_R_SQUARED 0.205, read-out: LUCIFERASE INFECTION ASSAY - IC50): 9.81 µM
IC90: > 10 µM

COc1ccc(-c2nccc3n[nH]c(-c4cccc(C(F)(F)F)c4)c23)cc1OC
IC50 (PBLUC_HILL_SLOPE 15.9, PBLUC_R_SQUARED 0.0621, read-out: LUCIFERASE INFECTION ASSAY - IC50): 9.75 µM
IC90: > 10 µM

O=C(c1cnc(Nc2cccc(C(F)(F)F)c2)[nH]1)c1ccccc1F
IC50 (PBLUC_HILL_SLOPE 15.7, PBLUC_R_SQUARED 0.709, read-out: LUCIFERASE INFECTION ASSAY - IC50): 9.07 µM
IC90: > 9.45 µM

Cc1cc(=O)n2nc(C)c(-c3ccc(F)cc3)c2[nH]1
IC50 (PBLUC_HILL_SLOPE 15.8, PBLUC_R_SQUARED 0.105, read-out: LUCIFERASE INFECTION ASSAY - IC50): > 12.8 µM
IC90: > 12.8 µM

Cc1c(Cl)cccc1-n1c(SCC(=O)N(CCC#N)c2ccccc2)nc2ccccc2c1=O
IC50 (PBLUC_HILL_SLOPE 15.9, PBLUC_R_SQUARED 0.269, read-out: LUCIFERASE INFECTION ASSAY - IC50): 9.73 µM
IC90: > 10 µM

CCOC(=O)c1cc(C#N)c(N2CCN(C(=O)Nc3cccc(C(F)(F)F)c3)CC2)nc1C(F)(F)F
IC50 (PBLUC_HILL_SLOPE 16, PBLUC_R_SQUARED 0.406, read-out: LUCIFERASE INFECTION ASSAY - IC50): 6.3 µM
IC90: > 6.4 µM

FC(F)Sc1ccc2nc3ccccc3c(N3CCOCC3)c2c1
IC50 (PBLUC_HILL_SLOPE 15.6, PBLUC_R_SQUARED 0.79, read-out: LUCIFERASE INFECTION ASSAY - IC50): 0.117 µM
IC90: 0.134 µM

O=C(Nc1ccc(Nc2ccccc2)cc1)c1[nH]nc2ccccc12
IC50 (PBLUC_HILL_SLOPE 16, PBLUC_R_SQUARED 0.594, read-out: LUCIFERASE INFECTION ASSAY - IC50): 8.92 µM
IC90: > 10 µM

c1ccc(OCCN2CCN(c3ccc(-c4nc5ccccc5[nH]4)cn3)CC2)cc1
IC50 (PBLUC_HILL_SLOPE 16.1, PBLUC_R_SQUARED 0.136, read-out: LUCIFERASE INFECTION ASSAY - IC50): 9.41 µM
IC90: > 10 µM

c1ccc(-c2nc(NCCCN3CCOCC3)c3cc(-c4ccccc4)sc3n2)cc1
IC50 (PBLUC_HILL_SLOPE 16.1, PBLUC_R_SQUARED 0.337, read-out: LUCIFERASE INFECTION ASSAY - IC50): 9.75 µM
IC90: > 10 µM

CC(C)c1ccc(C(=O)CSc2nc(N)cc(N)n2)c(C(C)C)c1
IC50 (PBLUC_HILL_SLOPE 15.6, PBLUC_R_SQUARED 0.415, read-out: LUCIFERASE INFECTION ASSAY - IC50): 9.92 µM
IC90: > 10 µM

CCOC(=O)c1sc(N(Cc2ccccc2)C(=O)CCc2cc(OC)c(OC)c(OC)c2)nc1C
IC50 (PBLUC_HILL_SLOPE 16, PBLUC_R_SQUARED 0.382, read-out: LUCIFERASE INFECTION ASSAY - IC50): 3.58 µM
IC90: 4.11 µM

O=C(Nc1nc2ccccc2[nH]1)c1cccc(S(=O)(=O)N(Cc2ccccc2)c2ccccc2Cl)c1
IC50 (PBLUC_HILL_SLOPE 15.7, PBLUC_R_SQUARED 0.534, read-out: LUCIFERASE INFECTION ASSAY - IC50): 3.18 µM
IC90: 3.66 µM

CN(C)S(=O)(=O)c1ccc(Cn2cc(C(=O)NCc3cccc(C(F)(F)F)c3)sc2=O)cc1
IC50 (PBLUC_HILL_SLOPE 16, PBLUC_R_SQUARED 0.195, read-out: LUCIFERASE INFECTION ASSAY - IC50): 6.47 µM
IC90: > 6.61 µM

N#Cc1c(SCC(=O)c2ccc(F)c(F)c2)nc2c(c1-c1cccs1)CCCC2
IC50 (PBLUC_HILL_SLOPE 15.7, PBLUC_R_SQUARED 0.483, read-out: LUCIFERASE INFECTION ASSAY - IC50): 7.6 µM
IC90: > 7.74 µM

N#Cc1ccc(C(=O)Nc2nc(-c3c[nH]c4ccccc34)cs2)cc1
IC50 (PBLUC_HILL_SLOPE 15.6, PBLUC_R_SQUARED 0.4, read-out: LUCIFERASE INFECTION ASSAY - IC50): 9.53 µM
IC90: > 10 µM

O=C(Nc1cccc(Cl)c1)Nc1ccc2nc(-c3ccncc3)nn2c1
IC50 (PBLUC_HILL_SLOPE 15.9, PBLUC_R_SQUARED 0.357, read-out: LUCIFERASE INFECTION ASSAY - IC50): 3.21 µM
IC90: 3.69 µM

COc1ccc(CCNC2CCc3c(c(C(=O)N(C)C)nn3CC3CCCCC3)C2)cc1 (stereo not given)
IC50 (PBLUC_HILL_SLOPE 15.6, PBLUC_R_SQUARED 0.553, read-out: LUCIFERASE INFECTION ASSAY - IC50): 7.33 µM
IC90: > 7.52 µM

CCCNc1nc(-c2ccc(OC)cc2)c(-c2ccc(OC)cc2)s1
IC50 (PBLUC_HILL_SLOPE 15.7, PBLUC_R_SQUARED 0.0413, read-out: LUCIFERASE INFECTION ASSAY - IC50): 9.99 µM
IC90: > 10 µM

COC(=O)c1c(NC(C)=O)c2cc(NCC3CC=CCC3)cnc2n1CCc1c[nH]c2ccccc12 (stereo not given)
IC50 (PBLUC_HILL_SLOPE 16.1, PBLUC_R_SQUARED 0.211, read-out: LUCIFERASE INFECTION ASSAY - IC50): 6.66 µM
IC90: > 6.8 µM

Clc1cccc(-c2nnc3ccc(-c4ccc(N5CCOCC5)cc4)cn23)c1
IC50 (PBLUC_HILL_SLOPE 15.8, PBLUC_R_SQUARED 0.114, read-out: LUCIFERASE INFECTION ASSAY - IC50): 9.72 µM
IC90: > 10 µM

CNC(=O)c1ccc(CN(Cc2csc(-c3ccsc3)n2)Cc2ccco2)cc1
IC50 (PBLUC_HILL_SLOPE 16.0, 14.5, PBLUC_R_SQUARED 0.463, 0.641, read-out: LUCIFERASE INFECTION ASSAY - IC50): 2.83 µM
IC90: 3.26 µM
